US20040147554A1, “Crystalline form of (3R,4R)-4-[3-(S)-hydroxy-3-(6-methoxy-quinolin-4-yl)propyl]-1-[2-2thienylthio)ethyl] piperidine-3-carboxylic acid” (Aventis Pharms S.A., priority 2002, published 2004)

Experiments:
Assay type in all cases: physicochemical
[1] = Stability of the crystalline form versus humidity (powder X-ray diffraction)
Protocol: The analyses are carried out on a Bruker D8 diffractometer having a copper-anticathode tube equipped with a front monochromator (wavelength of the copper Kα1 line: 1.54060 Å). The arrangement is of Bragg-Brentano type, with a point scintillation detector. The angular range swept extends from 2 to 40 degrees 2θ with a step of 0.02 degrees 2θ. The counting time is 120 seconds per step.
Form C of (3R,4R)-4-[3-(S)-hydroxy-3-(6-methoxyquinolin-4-yl)propyl]-1-[2-(2-thienylthio)ethyl]piperidine-3-carboxylic acid is a monohydrate form. It is stable at 25° C. and at the degree of ambient humidity. It is particularly stable between 50% and 100% humidity.

[2] = Stability of the crystalline form in alcohol/water mixtures; details: methanol/water or ethanol/water (1/1 by volume), after 30 days
Protocol: by stirring a suspension of form A at a temperature of 20° C.-25° C., in tetrahydrofuran/demineralized water (50/50 by volume), methyl ethyl ketone/demineralized water (80/20 by volume to 20/80 by volume), acetonitrile/demineralized water (50/50 by volume to 20/80 by volume) or ethanol or methanol/demineralized water (50/50 by volume) mixtures, for 5 days to about 30 days.

[3] = Loss in mass on heating below 50% humidity (dehydration); details: between 25° C. and 75° C., 1 mole of water/mole of the acid, dehydration to form B
Protocol: Below 50% humidity, a loss in mass of 3.7% by weight is recorded between 25° C. and 75° C. (1 mole of water/mole of the acid). This loss in mass corresponds to the dehydration of the form C to give another form of (3R,4R)-4-[3-(S)-hydroxy-3-(6-methoxyquinolin-4-yl)propyl]-1-[2-(2-thienylthio)ethyl]piperidine-3-carboxylic acid, hereinafter known as form B.

humidity up to which the form is stable ([1]; humidity) | stability of the crystalline form in solvent mixture [2] | loss in mass [3] [% by weight] | stability of the crystalline form ([1]; 25° C., ambient humidity) | stability by powder X-ray diffraction ([1]; 97% humidity, 20° C., after 11 weeks) | Compound
up to 30% |  |  |  |  | COc1ccc2nccc([C@@H](O)CC[C@@H]3CCN(CCSc4cccs4)C[C@@H]3C(=O)O)c2c1 [Form B, (3R,4R)-4-[3-(S)-hydroxy-3-(6-methoxyquinolin-4-yl)propyl]-1-[2-(2-thienylthio)ethyl]piperidine-3-carboxylic acid]
 | stable | 3.7 | stable | stability in the monohydtrate form | COc1ccc2nccc([C@@H](O)CC[C@@H]3CCN(CCSc4cccs4)C[C@@H]3C(=O)O)c2c1 [Form C, (3R,4R)-4-[3-(S)-hydroxy-3-(6-methoxyquinolin-4-yl)propyl]-1-[2-(2-thienylthio)ethyl]piperidine-3-carboxylic acid]
